{"source": "patent US11660303B2", "about": "“2-phenylimidazo[4,5-b]pyridin-7-amine derivates useful as inhibitors of mammalian tyrosine kinase ROR1 activity” (KANCERA AB, priority 2016, dated 2023)", "format_in_all_cases": "cell-based", "key": {"AMO-1": {"test_system": "AMO-1", "test": "MTT cytotoxicity assay, AMO-1", "conditions": "Homo sapiens, AMO1, AMO-1, Multiple Myeloma (MM), incubation 96 h", "procedure": "(§1) The MTT assay (Sigma-Aldrich) was used to measure cytotoxic capability of the ROR1 tyrosine kinase inhibitors (ROR1-TKI). Briefly, 2×10^4 cancer cells were incubated in triplicates in 200 μL of RPMI-1640 containing 10% FCS in 96 well plates. ROR1-TKI (dissolved in DMSO), were added to the cells. Cells treated with DMSO were used as negative control. Cells were incubated for 48, 72 or 96 h. An amount of 20 μL MTT solution was added and the cell suspension was incubated for 4 h at 37 degrees C. The reaction was stopped by adding 100 μL MTT solvent (10% SDS in 0.01 M HCl) and was incubated for further 2-4 h. The plate was then read by a microplate reader at 570 nm.\n(§2) Results, in terms of IC50 (μM), are shown in Table 4 for a representative compound of the invention, viz. Example 172."}, "HPB [1]": {"test_system": "HPB", "test": "MTT cytotoxicity assay, HPB", "conditions": "T-cell acute lymphoblastic leukemia (T-ALL), incubation 48 h", "procedure": "as §1, §2"}, "HDLM2": {"test_system": "HDLM2", "test": "Flow cytometry Annexin V/PI apoptosis assay, HDLM2", "conditions": "Homo sapiens, HDLM-2, HDLM2, Hodgkin’s Lymphoma (HL), incubation 48 h", "procedure": "(§3) Flow Cytometry Annexin V/PI Apoptosis Assay\n(§4) An amount of 1 ml (10^5 cells/mL) of cells were seeded in each well of 6-well plates with and without compounds for 48 h. Cells were collected, washed with PBS, suspended in 100 μL of Annexin-V binding buffer (BD Biosciences) containing FITC-conjugated Annexin-V and PI (BD Biosciences) and incubated at room temperature in the dark for 20 min. After 20 min of incubation, 150 μL Annexin-V binding buffer was added. Viable cells were identified as the double negative Annexin-V and PI population. Samples were analyzed by a FACS Canto II Flow-cytometer (BD Biosciences).\nas §2"}, "Reh": {"test_system": "Reh", "test": "MTT cytotoxicity assay, Reh", "conditions": "Homo sapiens, Non-T-cell non-B-cell-acute lymphoblastic leukemia, incubation 48 h", "procedure": "as §1, §2"}, "MDA-V [2]": {"test_system": "MDA-V", "test": "Flow cytometry Annexin V/PI apoptosis assay, MDA-V", "conditions": "Hodgkin’s Lymphoma (HL), incubation 48 h", "procedure": "as §3, §4, §2"}, "Caov3 [3]": {"test_system": "Caov3", "test": "Flow cytometry Annexin V/PI apoptosis assay, Caov3", "conditions": "Homo sapiens, Caov-3, Caov3, Ovarian cancer (OC), incubation 48 h", "procedure": "as §3, §4, §2"}, "Caov3 [4]": {"test_system": "Caov3", "test": "MTT cytotoxicity assay, Caov3", "conditions": "Homo sapiens, Caov-3, Caov3, Ovarian cancer (OC), incubation 48 h", "procedure": "as §1, §2"}, "KE37 [5]": {"test_system": "KE37", "test": "MTT cytotoxicity assay, KE37", "conditions": "Homo sapiens, KE-37, KE37, T-cell acute lymphoblastic leukemia (T-ALL), incubation 48 h", "procedure": "as §1, §2"}, "JeKo1": {"test_system": "JeKo1", "test": "MTT cytotoxicity assay, JeKo1", "conditions": "Homo sapiens, JeKo-1, JeKo1, Mantle Cell Lymphoma (MCL), incubation 96 h", "procedure": "as §1, §2"}, "HPB [6]": {"test_system": "HPB", "test": "Flow cytometry Annexin V/PI apoptosis assay, HPB", "conditions": "T-cell acute lymphoblastic leukemia (T-ALL), incubation 48 h", "procedure": "as §3, §4, §2"}, "EHEB": {"test_system": "EHEB", "test": "MTT cytotoxicity assay, EHEB", "conditions": "CLL cell line, DSMZ bank, (ACC 67), incubation 48 h", "procedure": "as §1, §2"}, "SEM cells": {"test_system": "SEM cells", "test": "MTT cytotoxicity assay, SEM", "conditions": "B-cell acute lymphoblastic leukemia (B-ALL), incubation 48 h", "procedure": "as §1, §2"}, "H1299": {"test_system": "H1299", "test": "MTT cytotoxicity assay, H1299", "conditions": "Homo sapiens, NCI-H1299, H1299, Non-small cell lung cancer, incubation 72 h", "procedure": "as §1, §2"}, "H69": {"test_system": "H69", "test": "Alamar Blue cell viability assay, H69", "conditions": "Homo sapiens, NCI-H69; H69, Small cell lung cancer (SCLC), alamarBlue, incubation 72 h", "procedure": "(§5) Alamar Blue Cell Viability Assay\n(§6) Cells were plated 12 hours prior to start of drug treatment, which lasted for 72 hours for all cytotoxicity experiments. Cell viability was estimated by alamarBlue™ Cell Viability Reagent (ThermoFisher, Waltham, Mass.) per manufacturer's instructions.\nas §2"}, "MDA-V [7]": {"test_system": "MDA-V", "test": "MTT cytotoxicity assay, MDA-V", "conditions": "Hodgkin’s Lymphoma (HL), incubation 48 h", "procedure": "as §1, §2"}, "HCC827": {"test_system": "HCC827", "test": "MTT cytotoxicity assay, HCC827", "conditions": "Homo sapiens, HCC827, Non-small cell lung cancer, incubation 72 h", "procedure": "as §1, §2"}, "A2780": {"test_system": "A2780", "test": "MTT cytotoxicity assay, A2780", "conditions": "Homo sapiens, A2780, Ovarian cancer (OC), incubation 48 h", "procedure": "as §1, §2"}, "MDA-MB-231": {"test_system": "MDA-MB-231", "test": "MTT cytotoxicity assay, MDA-MB-231", "conditions": "Homo sapiens, MDA-MB-231, Triple negative breast cancer, incubation 48 h", "procedure": "as §1, §2"}, "MS": {"test_system": "MS", "test": "MTT cytotoxicity assay, MS", "conditions": "Diffuse large B-cell lymphoma (DLBCL), incubation 48 h", "procedure": "as §1, §2"}, "SKOV3": {"test_system": "SKOV3", "test": "Flow cytometry Annexin V/PI apoptosis assay, SKOV3", "conditions": "Homo sapiens, SK-OV-3, SKOV3, Ovarian cancer (OC), incubation 48 h", "procedure": "as §3, §4, §2"}, "H1975": {"test_system": "H1975", "test": "MTT cytotoxicity assay, H1975", "conditions": "Homo sapiens, NCI-H1975, H1975, Non-small cell lung cancer, incubation 72 h", "procedure": "as §1, §2"}, "232-B4": {"test_system": "232-B4", "test": "MTT cytotoxicity assay, 232-B4", "conditions": "232-B4, CLL cell line, ExPASy Accession No: CVCL_Y436, MTT, incubation 48 h", "procedure": "as §1, §2"}, "Granta-519": {"test_system": "Granta-519", "test": "MTT cytotoxicity assay, Granta-519", "conditions": "Homo sapiens, Granta-519, Mantle Cell Lymphoma (MCL), incubation 96 h", "procedure": "as §1, §2"}, "JVM2": {"test_system": "JVM2", "test": "MTT cytotoxicity assay, JVM2", "conditions": "Homo sapiens, JVM-2, JVM2, Mantle Cell Lymphoma (MCL), incubation 96 h", "procedure": "as §1, §2"}, "MIA PaCa-2": {"test_system": "MIA PaCa-2", "test": "MTT cytotoxicity assay, MIA PaCa-2", "conditions": "Homo sapiens, MIA PaCa-2, Pancreatic cancer, incubation 48 h", "procedure": "as §1, §2"}, "H211": {"test_system": "H211", "test": "Alamar Blue cell viability assay, H211", "conditions": "Homo sapiens, NCI-H211; H211, Small cell lung cancer, alamarBlue, incubation 72 h", "procedure": "as §5, §6, §2"}, "KE37 [8]": {"test_system": "KE37", "test": "Flow cytometry Annexin V/PI apoptosis assay, KE37", "conditions": "Homo sapiens, KE-37, KE37, T-cell acute lymphoblastic leukemia (T-ALL), incubation 48 h", "procedure": "as §3, §4, §2"}, "A549": {"test_system": "A549", "test": "MTT cytotoxicity assay, A549", "conditions": "Homo sapiens, A549, Non-small cell lung cancer (NSCLC), incubation 72 h", "procedure": "as §1, §2"}, "OCI-LY3": {"test_system": "OCI-LY3", "test": "MTT cytotoxicity assay, OCI-LY3", "conditions": "Homo sapiens, OCI-LY3, Diffuse large B-cell lymphoma (DLBCL), incubation 48 h", "procedure": "as §1, §2"}}}
{"compound": "CCOCCN1CCN(c2ccc(-c3nc4c(NC5CCN(CC)CC5)c(Br)cnc4[nH]3)cc2)CC1", "note": "[Example 172, 6-Bromo-2-{4-[4-(2-ethoxyethyl)piperazin-1-yl]phenyl}-N-(1-ethylpiperidin-4-yl)-3H-imidazo[4,5-b]pyridin-7-amine]", "values": [{"measurement": "IC50", "setting": "AMO-1", "value": 50, "unit": "nM"}, {"measurement": "IC50", "setting": "HPB [1]", "value": 100, "unit": "nM"}, {"measurement": "IC50", "setting": "HDLM2", "value": 100, "unit": "nM"}, {"measurement": "IC50", "setting": "Reh", "value": 50, "unit": "nM"}, {"measurement": "IC50", "setting": "MDA-V [2]", "value": 100, "unit": "nM"}, {"measurement": "IC50", "setting": "Caov3 [3]", "value": 270, "unit": "nM"}, {"measurement": "IC50", "setting": "Caov3 [4]", "value": 250, "unit": "nM"}, {"measurement": "IC50", "setting": "KE37 [5]", "value": 200, "unit": "nM"}, {"measurement": "IC50", "setting": "JeKo1", "value": 75, "unit": "nM"}, {"measurement": "IC50", "setting": "HPB [6]", "value": 140, "unit": "nM"}, {"measurement": "IC50", "setting": "EHEB", "value": 200, "unit": "nM"}, {"measurement": "IC50", "setting": "SEM cells", "value": 25, "unit": "nM"}, {"measurement": "IC50", "setting": "H1299", "value": 250, "unit": "nM"}, {"measurement": "IC50", "setting": "H69", "value": 250, "unit": "nM"}, {"measurement": "IC50", "setting": "MDA-V [7]", "value": 50, "unit": "nM"}, {"measurement": "IC50", "setting": "HCC827", "value": 100, "unit": "nM"}, {"measurement": "IC50", "setting": "A2780", "value": 100, "unit": "nM"}, {"measurement": "IC50", "setting": "MDA-MB-231", "value": 150, "unit": "nM"}, {"measurement": "IC50", "setting": "MS", "value": 100, "unit": "nM"}, {"measurement": "IC50", "setting": "SKOV3", "value": 610, "unit": "nM"}, {"measurement": "IC50", "setting": "H1975", "value": 250, "unit": "nM"}, {"measurement": "IC50", "setting": "232-B4", "value": 200, "unit": "nM"}, {"measurement": "IC50", "setting": "Granta-519", "value": 250, "unit": "nM"}, {"measurement": "IC50", "setting": "JVM2", "value": 200, "unit": "nM"}, {"measurement": "IC50", "setting": "MIA PaCa-2", "value": 100, "unit": "nM"}, {"measurement": "IC50", "setting": "H211", "value": 180, "unit": "nM"}, {"measurement": "IC50", "setting": "KE37 [8]", "value": 180, "unit": "nM"}, {"measurement": "IC50", "setting": "A549", "value": 100, "unit": "nM"}, {"measurement": "IC50", "setting": "OCI-LY3", "value": 50, "unit": "nM"}]}
